Series [1] in a line: logP by HPLC on reversed-phase columns (EEC directive 79/831 Annex V.A8). Type of series: physicochemical. The following applies: for chromatographic logP: [b] LC-MS determination in the acidic range at pH 2.7, 0.1% aqueous formic acid and acetonitrile, read-out: log p. As for the experimental part:
Calibration was carried out using unbranched alkan-2-ones (having from 3 to 16 carbon atoms) with known logP values (the logP values were determined by the retention times using linear interpolation between two successive alkanones).

The next series deals with Phakopsora pachyrhizi. The experiment in a line: Phakopsora Test (soya beans)/Protective. Type of series: in vivo. The following applies: protective, active compound concentration 100 ppm, evaluation 11 days after inoculation. As for the experimental part: Phakopsora Test (soya beans)/Protective
One day after spraying, the plants are inoculated with an aqueous spore suspension of the soya bean rust pathogen (Phakopsora pachyrhizi). The plants are placed in a greenhouse at 20° C. and a rel. atmospheric humidity of 80%.
Evaluation is carried out 11 days after the inoculation.

The next series has as its system Fusarium proliferatum. The experiment in a line: Production of Fumonisin FB1 by Fusarium proliferatum. Type of series: cell-based. Particulars: 120 h, read-out: inhibition of fumonisin FB1 production. Here is the method:
Production of Fumonisin FB1 by Fusarium proliferatum
The compounds were tested in microtitre plates at 5 concentrations of from 0.08 μM to 50 μM in a fumonisin-inducing liquid medium (0.5 g of malt extract, 1 g of yeast extract, 1 g of bactopeptone, 20 g of fructose, 1 g of KH2PO4, 0.3 g of MgSO47 H2O, 0.3 g of KCl, 0.05 g of ZnSO47 H2O and 0.01 g of CuSO4×5 H2O per litre) with DMSO (0.5%). Inoculation was carried out using a concentrated spore suspension of Fusarium proliferatum at a final concentration of 2000 spores/ml.
The plate was incubated at 20° C. and high atmospheric humidity for 5 days.
At the beginning and after 5 days, the OD was measured at OD620 (repeated measurements: 3×3 measurements per well) to calculate the inhibition of growth.
After 5 days, a sample of the liquid medium was removed and diluted 1:1000 with 50% strength acetonitrile. The concentration of FB1 of the diluted samples was analysed by HPLC-MS/MS, and the measured values were used to calculate the inhibition of fumonisin FB1 production compared to an active compound-free control. […]

The test system of another series is Sphaerotheca fuliginea. The following applies: cucumber, protective, active compound concentration 500 ppm, evaluation 7 days after inoculation. As for the experimental part:
Sphaerotheca Test (cucumber)/protective
1 day after the treatment, the plants are inoculated with a spore suspension of Sphaerotheca fuliginea. The plants are then placed in a greenhouse at a relative atmospheric humidity of 70% and a temperature of 23° C.
Evaluation is carried out 7 days after the inoculation.

Where a name gives a salt, the structure may show the parent alone. Read-outs that look alike come from different tables or passages of the source. Marks after values point to notes of the source that are not given here.

Consider `CCN(C)C=Nc1cc(C)c(Oc2nc(Cc3ccc(Cl)cc3)ns2)cc1C.O=S(=O)(O)O` [Example 1, N′-(4-{[3-(4-chlorobenzyl)-1,2,4-thiadiazol-5-yl]oxy}-2,5-dimethylphenyl)-N-ethyl-N-methylimidoformamidesulphate], for which the log p in series [1] (pH 2.7) was 1.88^[b].

On to `Br.CCN(C)C=Nc1cc(C)c(Oc2nc(Cc3ccc(Cl)cc3)ns2)cc1C` [Example 2, N′-(4-{[3-(4-chlorobenzyl)-1,2,4-thiadiazol-5-yl]oxy}-2,5-dimethylphenyl)-N-ethyl-N-methylimidoformamide hydrobromide], for which, in series [1] (reversed-phase HPLC column), the chromatographic logP turned out to be 1.83. In addition, the efficacy with Phakopsora pachyrhizi is reported as ≥ 80%. The inhibition at 50 µM in the series with Fusarium proliferatum is > 80%.

For `CCN(C)C=Nc1cc(C)c(Oc2nc(Cc3ccc(Cl)cc3)ns2)cc1C` [Example 3, N′-(4-{[3-(4-Chlorobenzyl)-1,2,4-thiadiazol-5-yl]oxy}-2,5-dimethylphenyl)-N-ethyl-N-methylimidoformamide hydrochloride (1:1)], the chromatographic logP in series [1] is 2.03.

For “N′-(4-{[3-(4-chlorobenzyl)-1,2,4-thiadiazol-5-yl]oxy}-2,5-dimethylphenyl)-N-ethyl-N-methylimido-formamide-1,2-benzothiazol-3(2H)-one 1,1-dioxide [Example 4]”, the efficacy in the series with Sphaerotheca fuliginea was ≥ 70%.

For the origin of these results see patent publication US20110177943A1, “Benzyl-Substituted Thiadiazolyloxyphenylamidinium Salts” (priority 2009, published 2011).
